SMILES strings stand for the structures.

This assay has as its system Yersinia pseudotuberculosis. Put plainly: Antibacterial activity against Yersinia pseudotuberculosis assessed as percent resistant isolates by broth microdilution method. The assay is classed as functional.
As to `CC1(C)S[C@@H]2[C@H](NC(=O)[C@H](N)c3ccccc3)C(=O)N2[C@H]1C(=O)O` [AMPICILLIN], the Activity was 91.3%.

On to `O=C(O)c1cn(C2CC2)c2cc(N3CCNCC3)c(F)cc2c1=O` [CIPROFLOXACIN], for which the Activity was determined as 0%.

Regarding `C[C@H]1c2cccc(O)c2C(=O)C2=C(O)[C@]3(O)C(=O)C(C(N)=O)=C(O)[C@@H](N(C)C)[C@@H]3[C@@H](O)[C@@H]21.O` [DOXYCYCLINE], the Activity was 4.3%.

As for `CCn1cc(C(=O)O)c(=O)c2ccc(C)nc21` [NALIDIXIC ACID], the Activity worked out at 6.5%.

`CC1Sc2c(C(=O)O)c(=O)c3cc(F)c(N4CCNCC4)cc3n21` (stereo not given) [ULIFLOXACIN]: the Activity was 0%.

The values above are taken from ChEMBL document CHEMBL1629662, “Antimicrobial activity of prulifloxacin tested against a worldwide collection of gastroenteritis-producing pathogens, including those causing traveler's diarrhea” (2009).
